Test results reported in patent US11541055B2, “Inhibitors of human immunodeficiency virus replication” (ViiV Healthcare UK (No. 5) LIMITED, priority 2018, dated 2023).

Legend:
[1] = tested on: recombinant NL4-3 virus (Renilla luciferase) in MT-2 cells; test: HIV cell culture assay (antiviral activity, luciferase readout); type: cell-based; settings: Renilla, NL43
How it was run: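 Antiviral EC50 was derived via the median effect equation from luciferase signal. The signal came from MT-2 cultures infected for 4–5 days with a nef-deleted, Renilla luciferase-expressing NL4-3 reporter virus (made in 293T cells) in the presence of compound dilutions.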

[2] = Compound cytotoxicity, XTT-based colorimetric assay; type: cell-based; settings: human; uninfected MT2 cells, day 4, XTT
How it was run: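 Run under the antiviral-assay protocol but without virus. Viability was read on day 4 and CC50 values were derived from the readout.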

Structure (SMILES)	EC50 [1]	CC50 at 4 days [2]
CS(=O)(=O)Nc1nn(CC(F)F)c2c(-n3c([C@H](Cc4cc(F)cc(F)c4)NC(=O)Cn4nc(C(F)F)c5c4C(F)(F)[C@@H]4C[C@H]54)nc4cc(-c5cccnn5)ccc4c3=O)ccc(Cl)c12 (atropisomer, axis not shown) [Example 135, N-[(1S)-1-{3-[4-chloro-1-(2,2-difluoroethyl)-3-methanesulfonamido-1H-indazol-7-yl]-4-oxo-7-(pyridazin-3-yl)-3,4-dihydroquinazolin-2-yl}-2-(3,5-difluorophenyl)ethyl]-2-[(2S,4R)-9-(difluoromethyl)-5,5-difluoro-7,8-diazatricyclo[4.3.0.0^2,^4]nona-1(6),8-dien-7-yl]acetamide]	54 pM	> 500000 pM
CS(=O)(=O)Nc1nn(CC(F)F)c2c(-n3c([C@H](Cc4cc(F)cc(F)c4)NC(=O)Cn4nc(C(F)F)c5c4C(F)(F)[C@@H]4C[C@H]54)nc4cc(-c5ncccc5S(C)(=O)=O)ccc4c3=O)ccc(Cl)c12 (atropisomer, axis not shown) [Example 136, N-[(1S)-1-{3-[4-chloro-1-(2,2-difluoroethyl)-3-methanesulfonamido-1H-indazol-7-yl]-7-(3-methanesulfonylpyridin-2-yl)-4-oxo-3,4-dihydroquinazolin-2-yl}-2-(3,5-difluorophenyl)ethyl]-2-[(2S,4R)-9-(difluoromethyl)-5,5-difluoro-7,8-diazatricyclo[4.3.0.0^2,^4]nona-1(6),8-dien-7-yl]acetamide]	46 pM	> 500000 pM
Cc1cc(C)nc(-c2ccc3c(=O)n(-c4ccc(Cl)c5c(NS(C)(=O)=O)nn(CC(F)F)c45)c([C@H](Cc4cc(F)cc(F)c4)NC(=O)Cn4nc(C(F)F)c5c4C(F)(F)[C@@H]4C[C@H]54)nc3c2)c1 (atropisomer, axis not shown) [Example 137, N-[(1S)-1-{3-[4-chloro-1-(2,2-difluoroethyl)-3-methanesulfonamido-1H-indazol-7-yl]-7-(4,6-dimethylpyridin-2-yl)-4-oxo-3,4-dihydroquinazolin-2-yl}-2-(3,5-difluorophenyl)ethyl]-2-[(2S,4R)-9-(difluoromethyl)-5,5-difluoro-7,8-diazatricyclo[4.3.0.0^2,^4]nona-1(6),8-dien-7-yl]acetamide]	200 pM	> 500000 pM
CCc1cc(-c2ccc3c(=O)n(-c4ccc(C)c5c(NS(C)(=O)=O)nn(C)c45)c([C@H](Cc4cc(F)cc(F)c4)NC(=O)Cn4nc(C(F)F)c5c4C(F)(F)[C@@H]4C[C@H]54)nc3c2)nc(C)n1 (atropisomer, axis not shown) [Example 139, 2-[(2S,4R)-9-(difluoromethyl)-5,5-difluoro-7,8-diazatricyclo[4.3.0.0^2,^4]nona-1(6),8-dien-7-yl]-N-[(1S)-2-(3,5-difluorophenyl)-1-[7-(6-ethy1-2-methylpyrimidin-4-yl)-3-(3-methanesulfonamido-1,4-dimethyl-1H-indazol-7-yl)-4-oxo-3,4-dihydroquinazolin-2-yl]ethyl]acetamide]	130 pM	> 500000 pM
Cc1ncc(F)c(-c2ccc3c(=O)n(-c4ccc(C)c5c(NS(C)(=O)=O)nn(C)c45)c([C@H](Cc4cc(F)cc(F)c4)NC(=O)Cn4nc(C(F)F)c5c4C(F)(F)[C@@H]4C[C@H]54)nc3c2)n1 (atropisomer, axis not shown) [Example 140, 2-[(2S,4R)-9-(difluoromethyl)-5,5-difluoro-7,8-diazatricyclo[4.3.0.0^2,^4]nona-1(6),8-dien-7-yl]-N-[(1S)-2-(3,5-difluorophenyl)-1-[7-(5-fluoro-2-methylpyrimidin-4-yl)-3-(3-methanesulfonamido-1,4-dimethyl-1H-indazol-7-yl)-4-oxo-3,4-dihydroquinazolin-2-yl]ethyl]acetamide]	97 pM	> 500000 pM
Cc1ccc(-n2c([C@H](Cc3cc(F)cc(F)c3)NC(=O)Cn3nc(C(F)F)c4c3C(F)(F)[C@@H]3C[C@H]43)nc3cc(-c4cccnn4)ccc3c2=O)c2c1c(NS(C)(=O)=O)nn2C (atropisomer, axis not shown) [Example 141, 2-[(2S,4R)-9-(difluoromethyl)-5,5-difluoro-7,8-diazatricyclo[4.3.0.0^2,^4]nona-1(6),8-dien-7-yl]-N-[(1S)-2-(3,5-difluorophenyl)-1-[3-(3-methanesulfonamido-1,4-dimethyl-1H-indazol-7-yl)-4-oxo-7-(pyridazin-3-yl)-3,4-dihydroquinazolin-2-yl]ethyl]acetamide]	130 pM	> 500000 pM
Cc1ccc(-n2c([C@H](Cc3cc(F)cc(F)c3)NC(=O)Cn3nc(C(F)F)c4c3C(F)(F)[C@@H]3C[C@H]43)nc3cc(-c4ccccc4S(=O)(=O)C(C)(C)C)ccc3c2=O)c2c1c(NS(=O)(=O)C1CC1)nn2CC(F)F (atropisomer, axis not shown) [Example 142, N-[(1S)-1-{3-[3-cyclopropanesulfonamido-1-(2,2-difluoroethyl)-4-methyl-1H-indazol-7-yl]-7-[2-(2-methylpropane-2-sulfonyl)phenyl]-4-oxo-3,4-dihydroquinazolin-2-yl}-2-(3,5-difluorophenyl)ethyl]-2-[(2S,4R)-9-(difluoromethyl)-5,5-difluoro-7,8-diazatricyclo[4.3.0.0^2,^4]nona-1(6),8-dien-7-yl]acetamide]	380 pM	> 500000 pM
CC(C)(C)S(=O)(=O)c1ccccc1-c1ccc2c(=O)n(-c3ccc(Cl)c4c(NS(=O)(=O)C5CC5)nn(CC(F)F)c34)c([C@H](Cc3cc(F)cc(F)c3)NC(=O)Cn3nc(C(F)F)c4c3C(F)(F)[C@@H]3C[C@H]43)nc2c1 (atropisomer, axis not shown) [Example 143]	280 pM	> 500000 pM
CN(c1ccccc1-c1ccc2c(=O)n(-c3ccc(Cl)c4c(NS(=O)(=O)C5CC5)nn(CC(F)F)c34)c([C@H](Cc3cc(F)cc(F)c3)NC(=O)Cn3nc(C(F)F)c4c3C(F)(F)[C@@H]3C[C@H]43)nc2c1)S(C)(=O)=O (atropisomer, axis not shown) [Example 144]	180 pM	> 500000 pM
Cc1ccc(-n2c([C@H](Cc3cc(F)cc(F)c3)NC(=O)Cn3nc(C(F)F)c4c3C(F)(F)[C@@H]3C[C@H]43)nc3cc(-c4ccccc4N(C)S(C)(=O)=O)ccc3c2=O)c2c1c(NS(=O)(=O)C1CC1)nn2CC(F)F (atropisomer, axis not shown) [Example 145, N-[(1S)-1-{3-[3-cyclopropanesulfonamido-1-(2,2-difluoroethyl)-4-methyl-1H-indazol-7-yl]-7-[2-(N-methylmethanesulfonamido)phenyl]-4-oxo-3,4-dihydroquinazolin-2-yl}-2-(3,5-difluorophenyl)ethyl]-2-[(2S,4R)-9-(difluoromethyl)-5,5-difluoro-7,8-diazatricyclo[4.3.0.0^2,^4]nona-1(6),8-dien-7-yl]acetamide]	680 pM	> 500000 pM
CN(c1ccc(-c2ccc3c(=O)n(-c4ccc(Cl)c5c(NS(=O)(=O)C6CC6)nn(CC(F)F)c45)c([C@H](Cc4cc(F)cc(F)c4)NC(=O)Cn4nc(C(F)F)c5c4C(F)(F)[C@@H]4C[C@H]54)nc3c2)cc1)S(C)(=O)=O (atropisomer, axis not shown) [Example 147, N-[(1S)-1-{3-[4-chloro-3-cyclopropanesulfonamido-1-(2,2-difluoroethyl)-1H-indazol-7-yl]-7-[4-(N-methylmethanesulfonamido)phenyl]-4-oxo-3,4-dihydroquinazolin-2-yl}-2-(3,5-difluorophenyl)ethyl]-2-[(2S,4R)-9-(difluoromethyl)-5,5-difluoro-7,8-diazatricyclo[4.3.0.0^2,^4]nona-1(6),8-dien-7-yl]acetamide]	340 pM	> 500000 pM
CN(c1cccc(-c2ccc3c(=O)n(-c4ccc(Cl)c5c(NS(=O)(=O)C6CC6)nn(CC(F)F)c45)c([C@H](Cc4cc(F)cc(F)c4)NC(=O)Cn4nc(C(F)F)c5c4C(F)(F)[C@@H]4C[C@H]54)nc3c2)c1)S(C)(=O)=O (atropisomer, axis not shown) [Example 148, N-[(1S)-1-{3-[4-chloro-3-cyclopropanesulfonamido-1-(2,2-difluoroethyl)-1H-indazol-7-yl]-7-[3-(N-methylmethanesulfonamido)phenyl]-4-oxo-3,4-dihydroquinazolin-2-yl}-2-(3,5-difluorophenyl)ethyl]-2-[(2S,4R)-9-(difluoromethyl)-5,5-difluoro-7,8-diazatricyclo[4.3.0.0^2,^4]nona-1(6),8-dien-7-yl]acetamide]	280 pM	> 500000 pM
Cc1cc(C)nc(-c2ccc3c(=O)n(-c4ccc(Cl)c5c(NS(C)(=O)=O)nn(C)c45)c([C@H](Cc4cc(F)cc(F)c4)NC(=O)Cn4nc(C(F)F)c5c4C(F)(F)[C@@H]4C[C@H]54)nc3c2)c1 (atropisomer, axis not shown; (P)) [Example 1, N—((S)-1-((3P)-3-(4-chloro-1-methyl-3-(methylsulfonamido)-1H-indazol-7-yl)-7-(4,6-dimethylpyridin-2-yl)-4-oxo-3,4-dihydroquinazolin-2-yl)-2-(3,5-difluorophenyl)ethyl)-2-((3bS,4aR)-3-(difluoromethyl)-5,5-difluoro-3b,4,4a,5-tetrahydro-1H-cyclopropa[3,4]cyclopenta[1,2-c]pyrazol-1-yl)acetamide]	150 pM	> 500000 pM
Cc1ccnc(-c2ccc3c(=O)n(-c4ccc(Cl)c5c(NS(C)(=O)=O)nn(C)c45)c([C@H](Cc4cc(F)cc(F)c4)NC(=O)Cn4nc(C(F)F)c5c4C(F)(F)[C@@H]4C[C@H]54)nc3c2)c1 (atropisomer, axis not shown; (P)) [Example 2, N—((S)-1-((3P)-3-(4-chloro-1-methyl-3-(methylsulfonamido)-1H-indazol-7-yl)-7-(4-methylpyridin-2-yl)-4-oxo-3,4-dihydroquinazolin-2-yl)-2-(3,5-difluorophenyl)ethyl)-2-((3bS,4aR)-3-(difluoromethyl)-5,5-difluoro-3b,4,4a,5-tetrahydro-1H-cyclopropa[3,4]cyclopenta[1,2-c]pyrazol-1-yl)acetamide]	59 pM	> 500000 pM
